# Measured values: US20250127169A1, “PLANTS HAVING INCREASED TOLERANCE TO HERBICIDES” (BASF Agricultural Solutions Seed US LLC, priority 2021, published 2025)
# Values joined by “and” are separate entries in the source; they are usually repeats but may differ in a detail not shown here. Equal entries are not always repeated.
# Assays:
# [1] = target: PPO2 AMATU L397Q, F420M (variant based on SEQ ID NO: 1) (Amaranthus tuberculatus, UniProt Q0NZW9, F420M/L397Q); test: biochemical
# [2] = target: PPO2 AMATU L397E, F420V (variant based on SEQ ID NO: 1) (Amaranthus tuberculatus, UniProt Q0NZW9, F420V/L397E); test: biochemical
Compound,IC50 [1],IC50 [2]
"CCOC(=O)C(OC)Oc1ccccc1Oc1cc(-n2c(=O)cc(C(F)(F)F)n(C)c2=O)c(F)cc1Br (stereo not drawn) [phenyluracil 2, ethyl 2-[2-[2-bromo-4-fluoro-5-[3-methyl-2,6-dioxo-4-(trifluoromethyl)pyrimidin-1-yl]phenoxy]phenoxy]-2-methoxy-acetate]",159 nM,6790 nM
"COC(Oc1ccccc1Oc1cc(-n2c(=O)cc(C(F)(F)F)n(C)c2=O)c(F)cc1Br)C(=O)O (stereo not drawn) [phenyluracil 3, 2-[2-[2-bromo-4-fluoro-5-[3-methyl-2,6-dioxo-4-(trifluoromethyl)pyrimidin-1-yl]phenoxy]phenoxy]-2-methoxy-acetic acid]",143 nM,2810 nM
"COC(=O)C(OC)Oc1ccccc1Oc1cc(-n2c(=O)cc(C(F)(F)F)n(C)c2=O)c(F)cc1Br (stereo not drawn) [phenyluracil 1, methyl 2-[2-[2-bromo-4-fluoro-5-[3-methyl-2,6-dioxo-4-(trifluoromethyl)pyrimidin-1-yl]phenoxy]phenoxy]-2-methoxy-acetate]",357 nM and 354 nM,5790 nM and 5450 nM
